Measurements reported in paper PMC10747602, “Dose Response, Dosimetric, and Metabolic Evaluations of Replacement PFAS Perfluoro-(2,5,8-trimethyl-3,6,9-trioxadodecanoic) Acid (HFPO-TeA)” (Toxics, 2023).
Several values for one entry are separate records, joined by “and”; a condition that tells them apart may be missing. Identical values can stand only once.

Legend:
[1] = design: method as in PMID 21948869, PMID 36309054; conditions: cited from earlier work
human hepatocytes = assay: Hepatocyte metabolic stability (clearance) assay, human hepatocytes; conditions: 1000 nM; for Negative Control Data, No cells (NC), Ln Concentration / Negative Control Data, Heat Treated (HT), Ln Concentration / Ln Concentration: Rep 1-3
Description: (§1) Information on the chemicals and materials used in the hepatocyte metabolic work can be found in Supplementary Text S9 and Table S3. In vitro evaluations of hepatocyte metabolic stability were performed in human and rat hepatocytes, as previously described. Briefly, pooled, cryopreserved hepatocyte suspensions were thawed, assessed for viability, and then diluted in William’s medium E containing dexamethasone and cell maintenance cocktail B to achieve a cell density of 50,000 cells/100 µL. The assay was started by adding hepatocyte suspensions to wells of 96-well polypropylene plates containing an equal volume of media with 2 µM of analyte (final assay concentration: 1 µM). Plates were placed in a 37 °C cell culture incubator (5% CO2) on a shaker set to 200 rpm. Time points assessed were T0, T15, T30, T60, T120, and T240 min. At each time point, the plates were removed from the shaker and the incubates were crashed with an equal volume of ice-cold ACN containing 1.2% FA and 16 ng/mL of ^13C3 -HFPO-DA. After chilling and centrifugation at 4122× g, the supernatants were transferred to new collection plates and stored at −70 °C until analysis for the parent compound on the Waters instrumentation described below. Immediately prior to analysis, samples were thawed, vortexed, and centrifuged at 4200× g, and then diluted 1:4 in 95:5 H2O/ACN with 2.5 mM of ammonium acetate. Negative controls, including no cell controls and metabolically inactivated hepatocytes, were run concurrently to assess the chemical stability over the time course.
(§2) Intrinsic clearance (Clint; hepatic clearance) calculations are detailed in Supplementary Text S9 [57].
(§3) Targeted, quantitative analysis of in vitro hepatocyte metabolic stability and plasma protein binding assay samples was conducted on a Waters Xevo-TQS micro mass spectrometer (Waters, Milford, MA, USA) ultra-high-performance liquid chromatography tandem mass spectrometry system (UPLC-MS/MS), modified with a PFAS analysis kit. Samples were analyzed in negative ion mode with UniSpray ionization. A CORTECS T3 column (Waters CORTECS, 3 × 100 mm, particle size 2.7 µm) was used for chromatographic separation with a flow rate of 0.6 mL/min and a temperature of 55 °C. Gradient elution was used with eluent A (95:5 H2O/ACN) and eluent B (95:5 ACN/H2O) with 2.5 mM of ammonium acetate. The gradient is available in Table S11. Additional details for MS parameters are found in Table S12 and monitored transitions are found in Table S13.
(§4) Table S2: Data processing parameters used with Sciex MarkerView 1.3.1.
(§5) Support ing Text S9: Hepatocyte Metabolic Stability Assay Materials, Chemicals, and Calculations
(§6) Pooled human and rat cryopreserved primary hepatocyte suspensions were both obtained from
(§7) BioIVT, a US Food and Drug Administration-licensed and inspected donor center, and produced using
(§8) non-transplantable tissue.
(§9) William’s E media, dexamet hasone (98% pure), and cell maintenance cocktail B were obtained from
(§10) Thermo Fisher Scientific (Waltham, MA, USA), the OptiThaw hepatocyte kit from Sekisui/Xenotech
(§11) (Tokyo, Japan), and the trypan blue s (Sekisui/ Xenotech, Tokyo, Japan) and the trypan blue solution from […]

[2] = as above; conditions: human, hepatocytes, 1000 nM
Description: as §1, §2, §3, §4, §5, §6, §7, §8, §9, §10, §11

rat hepatocytes = assay: Hepatocyte metabolic stability (clearance) assay, rat hepatocytes; conditions: 1000 nM
Description: as §1, §2, §3, §4, §5, §6, §7, §8, §9, §10, §11

[3] = as above; conditions: both, Sprague Dawley, rat, hepatocytes
Description: as §1, §2, §3, §4, §5, §6, §7, §8, §9, §10, §11

O=S(=O)(O)C(F)(F)C(F)(F)C(F)(F)C(F)(F)C(F)(F)C(F)(F)C(F)(F)C(F)(F)F [PFOS, perfluorooctane sulfonic acid]
underestimation of Css values by previous IVIVE evaluations [1]: > 100 ×

CCOc1ccc(NC(C)=O)cc1 [Phenactin, phenacetin, reference compound]
Negative Control Data, No cells (NC), Ln Concentration (human hepatocytes; 15 min): 3.8649 and 3.8943 and 3.8643 | Negative Control Data, No cells (NC), Ln Concentration (human hepatocytes; 240 min): 3.9162 and 4.0144 and 3.9729 | HT Background k (human hepatocytes; heat treated human hepatocytes): -0.0016 | Negative Control Data, Heat Treated (HT), Ln Concentration (human hepatocytes; human hepatocytes, 15 min): 4.4085 and 4.9735 and 5.3748 | Negative Control Data, Heat Treated (HT), Ln Concentration (human hepatocytes; human hepatocytes, 240 min): 4.6160 and 4.4891 and 4.5540 | Ln Concentration (human hepatocytes; human hepatocytes, time 0 min): 3.7764 and 3.7975 and 3.7223 | Ln Concentration (human hepatocytes; human hepatocytes, time 15 min): 3.8137 and 3.7544 and 3.6623 | Ln Concentration (human hepatocytes; human hepatocytes, time 30 min): 3.5799 and 3.7106 and 3.6378 | Ln Concentration (human hepatocytes; human hepatocytes, time 60 min): 3.3014 and 3.5121 and 3.4541 | Linear Regression Best-Fit Slope (ln concentration vs time) (human hepatocytes; human hepatocytes, time in min): -0.006025 | hepatocyte CLint at 1 µM ([2]; Background-Subtracted Clint, human hepatocytes): 8.8 µL/min/1e6 cells | hepatocyte CLint at 1 µM ([2]; Clint, human hepatocytes, not background-subtracted): 12.1 µL/min/1e6 cells | half-life at 1 µM ([2]; HT-Background Half Life, heat treated human hepatocytes): 7.1 h | half-life at 1 µM ([2]; Half Life, human hepatocytes, time in min): 1.92 h | Negative Control Data, Heat Treated (HT), 15 min (rat hepatocytes; heat treated rat hepatocytes, 15 min, Ln concentration, Rep 1-3): 3.7605 and 3.8293 and 3.8230 | Negative Control Data, Heat Treated (HT), 240 min (rat hepatocytes; heat treated rat hepatocytes, 240 min, Ln concentration, Rep 1-3): 3.8801 and 3.8626 and 3.3989 | Negative Control Data, No cells (NC), 15 min (rat hepatocytes; no cells, 15 min, Ln concentration, Rep 1-3): 3.7121 and 3.7753 and 3.7677 | Negative Control Data, No cells (NC), 240 min (rat hepatocytes; no cells, 240 min, Ln concentration, Rep 1-3): 3.8252 and 3.8743 and 4.0157 | Ln Concentration, 0 min (rat hepatocytes; suspended rat hepatocytes, time 0 min, Rep 1-3): 3.7431 and 3.7883 and 3.8093 | Ln Concentration, 15 min (rat hepatocytes; suspended rat hepatocytes, time 15 min, Rep 1-3): 3.7497 and 3.8776 and 3.8997 | Ln Concentration, 30 min (rat hepatocytes; suspended rat hepatocytes, time 30 min, Rep 1-3): 3.5148 and 3.4871 and 3.5444 | Ln Concentration, 60 min (rat hepatocytes; suspended rat hepatocytes, time 60 min, Rep 1-3): 3.0012 and 3.3979 and 3.4757 | Ln Concentration, 120 min (rat hepatocytes; suspended rat hepatocytes, time 120 min, Rep 1-3): 2.7575 and 2.7517 and 2.9423 | Ln Concentration, 240 min (rat hepatocytes; suspended rat hepatocytes, time 240 min, Rep 1-3): 2.0042 and 1.7029 and 2.0503 | Linear Regression Best-Fit Slope (Ln concentration vs time) (rat hepatocytes; suspended rat hepatocytes, time in min): -0.008025 | half-life at 1000 nM [3]: 1.44 h | hepatocyte CLint at 1000 nM [3]: 16.1 µL/min/1e6 cells
